Laboratory results published in patent US20070053866A1, “IN-CAN AND DRY COATING ANTIMICROBIAL COMPOSITIONS HAVING HYDROXY ANALOGS OF METHIONINE AND DERIVATIVES” (NOVUS INTERNATIONAL INC., priority 2005, published 2007).

How the values were obtained:
[1] = system: Penicillium and Aspergilus sp.; experiment: Dry-film alkyd paint mold and mildew resistance in environmental chamber (ASTM D 3273-94, ASTM D 3274-95); assay type: cell-based; details: scale of 1 to 10, 10 being totally free of growth; for ASTM RATING Mean: One month in the environmental chamber, added at 1% to alkyd paint; for ASTM Rating: Three months of continuous alkyd paint testing in the environmental chamber
Protocol: Accelerated testing of biocides in paints is conducted using environmental chambers maintained at constant high humidity (85-88% relative humidity) and temperature (30-33° C.). The chamber was primed with spores of Penicillium and Aspergilus sp. to accelerate the formation of fungal organisms. Wood panels are coated with the experimental paints and placed inside the chamber for a period of 4-12 weeks. The relative resistance of the paint to the mold and mildew inside the chamber was evaluated subjectively from a scale of 1 to 10, with 10 being totally free of growth. This test is described in more detail in ASTM D 3273-94 and ASTM D 3274-95.
Paint preservatives listed in table 5 below were added at 1% to alkyd paint formulations. HMTBA-Zn is a zinc metal chelate as described above; HMTBA-Cu is a copper metal chelate as described above; HMTBA-Mn is a manganese metal chelate as described above; BIOX-S is 6-ethoxy-1,2-dihydro-2,2,4-trimethylquinoline; BIOX-A is 88 wt. % HMTBA; BIOX-ASL contains 35 wt. % of 2-hydroxy-4-methylthio butanoic acid (88%), 45 wt. % of formic acid, 10 wt. % phosphoric acid and 10 wt. % lactic acid; and BIOX-EZ/7030 contains 70 wt. % of 6-ethoxy-1,2-dihydro-2,2,4-trimethylquinoline and 30 wt. % of HMTBA-Zn metal chelate. Troy663 is a positive control.

[2] = system: Pseudomonas aeruginosa ATCC 10145 and Enterobacter aerogenes ATCC 13048; experiment: In-can paint preservation: bacterial resistance rating of inoculated water borne paint; assay type: cell-based; design: key: 0: no bacterial recovery; trace of contamination (1 to 9 colonies); 2: light contamination (10 to 99 colonies); 3: moderate contamination (>100 distinct colonies); 4: heavy contamination (continuous smear of growth)
Protocol: Paint preservatives listed in the tables below were added at the listed concentrations to water borne paint formulations. BIOX-ASL contains 35 wt. % of 2-hydroxy-4-methylthio butanoic acid (88%), 45 wt. % of formic acid, 10 wt. % phosphoric acid and 10 wt. % lactic acid; BIOX-AWD contains 40 wt. % of 2-hydroxy-4-methylthio butanoic acid, 40 wt. % of formic acid and 20 wt. % propionic acid; BIOX-ASDA contains 36.4 wt. % of calcium bis(2-hydroxy-4-methylthiobuanoate), 41.9 wt. % of fumaric acid, 20 wt. % of benzoic acid, 0.9 wt. % flow aid and 0.73 wt. % other additives; HTA and BIOBAN BP30 are commercially available; BIOX-Z is a HMTBA-Zn metal chelate, and BIOX-C is a HMTBA-Cu metal chelate.
The paints were inoculated with Pseudomonas aeruginosaATCC 10145 and Enterobacter aerogenes ATCC 13048 at a level of 0.1% inoculum, and paints were then sampled during the next seven days to determine the number of bacterial colonies surviving in the paint. The efficacy of the added antimicrobial agents were given a numeric rating based on the following system: (0) for no bacterial recovery, (1) for trace of contamination (1 to 9 colonies), (2) for light contamination (10 to 99 colonies), (3) for moderate contamination (>100 distinct colonies) and (4) for heavy contamination (continuous smear of growth).
The paints were then inoculated at a level of 1.0% inoculum and were again sampled during the next seven days to determine the number of bacterial colonies surviving in the paint. These ratings were also plotted versus day after inoculation for each concentration of BIOX-ASL, BIOX-AWD, BIOX-ASDA, and BIOX-C, and are presented in FIGS. 1-4. The minimum inhibitory concentration (MIC) of each BIOX biocide was much lower after one week than those of commercially available products, as shown in FIG. 5.

[3] = Table 1, week 1, 0.1% inoculum, 5 ppm in water borne paint
[4] = Table 1, week 1, 0.1% inoculum, 25 ppm in water borne paint
[5] = Table 2, week 2, 1.0% inoculum, 5 ppm in water borne paint
[6] = Table 2, week 2, 1.0% inoculum, 25 ppm in water borne paint
[7] = Table 3, Week 1: 0.1% Inoculum, sample at 1.0%
[8] = Table 3, Week 2: 1.0% Inoculum, sample at 1.0%
[9] = Table 4, Week 1: 0.1% Inoculum, sample at 1.0% (Bioban BP30: concentration not given)
[10] = Table 4, Week 2: 1.0% Inoculum, sample at 1.0%

## CSCCC(O)C(=O)O (stereo not drawn) [BIOX-A, 2-hydroxy-4(methylthio)butanoic acid]
[1]
  ASTM RATING Mean: 9.2

## CSCCC(O)C(=O)[O-].CSCCC(O)C(=O)[O-].[Cu+2] (stereo not drawn) [BIOX-C, copper 2-hydroxy-4-methylthiobutanoate chelate]
[2]; [3]
  Bacteria Resistance Rating, Before Inoculation: 0
  Bacteria Resistance Rating, Day 1: 0
  Bacteria Resistance Rating, Day 2: 0
  Bacteria Resistance Rating, Day 5: 0
  Bacteria Resistance Rating, Day 7: 0
  Bacteria Resistance Rating, Initial Inoculation: 4
[2]; [4]
  Bacteria Resistance Rating, Before Inoculation: 0
  Bacteria Resistance Rating, Day 1: 0
  Bacteria Resistance Rating, Day 2: 0
  Bacteria Resistance Rating, Day 5: 0
  Bacteria Resistance Rating, Day 7: 0
  Bacteria Resistance Rating, Initial Inoculation: 4
[2]; [5]
  Bacteria Resistance Rating, Before Inoculation: 0
  Bacteria Resistance Rating, Day 1: 3 (moderate contamination (>100 distinct colonies))
  Bacteria Resistance Rating, Day 2: 1 (trace of contamination (1 to 9 colonies))
  Bacteria Resistance Rating, Day 5: 0
  Bacteria Resistance Rating, Day 7: 0
  Bacteria Resistance Rating, Initial Inoculation: 4
[2]; [6]
  Bacteria Resistance Rating, Before Inoculation: 0
  Bacteria Resistance Rating, Day 1: 3 (moderate contamination (>100 distinct colonies))
  Bacteria Resistance Rating, Day 2: 0
  Bacteria Resistance Rating, Day 5: 0
  Bacteria Resistance Rating, Day 7: 0
  Bacteria Resistance Rating, Initial Inoculation: 4
[2]; [7]
  Bacterial Resistance Rating, Day 1: 2 (light contamination (10 to 99 colonies))
  Bacterial Resistance Rating, Day 2: 0
  Bacterial Resistance Rating, Day 5: 0
  Bacterial Resistance Rating, Day 7: 0
  Bacterial Resistance Rating, Initial: 4
[2]; [8]
  Bacterial Resistance Rating, Day 1: 0
  Bacterial Resistance Rating, Day 2: 0
  Bacterial Resistance Rating, Day 5: 0
  Bacterial Resistance Rating, Day 7: 0
  Bacterial Resistance Rating, Initial: 4
[2]; [9]
  Bacterial Resistance Rating, Day 1: 0
  Bacterial Resistance Rating, Day 2: 0
  Bacterial Resistance Rating, Day 5: 0
  Bacterial Resistance Rating, Day 7: 0
  Bacterial Resistance Rating, Initial: 4
[2]; [10]
  Bacterial Resistance Rating, Day 1: 0
  Bacterial Resistance Rating, Day 2: 0
  Bacterial Resistance Rating, Day 5: 0
  Bacterial Resistance Rating, Initial: 4
[1]
  ASTM RATING Mean: 9.3
  ASTM Rating: 9.0 ± 0.6

## CCOc1ccc2c(c1)C(C)=CC(C)(C)N2 [BIOX-S, 6-ethoxy-1,2-dihydro-2,2,4-trimethylquinoline]
[1]
  ASTM RATING Mean: 9.2

## CSCCC(O)C(=O)[O-].CSCCC(O)C(=O)[O-].[Zn+2] (stereo not drawn) [BIOX-Z]
[2]; [7]
  Bacterial Resistance Rating, Day 1: 0
  Bacterial Resistance Rating, Day 2: 0
  Bacterial Resistance Rating, Day 5: 0
  Bacterial Resistance Rating, Day 7: 0
  Bacterial Resistance Rating, Initial: 4
[2]; [8]
  Bacterial Resistance Rating, Day 1: 1 (trace of contamination (1 to 9 colonies))
  Bacterial Resistance Rating, Day 2: 0
  Bacterial Resistance Rating, Day 5: 0
  Bacterial Resistance Rating, Day 7: 0
  Bacterial Resistance Rating, Initial: 4
[2]; [9]
  Bacterial Resistance Rating, Day 1: 1 (trace of contamination (1 to 9 colonies))
  Bacterial Resistance Rating, Day 2: 0
  Bacterial Resistance Rating, Day 5: 0
  Bacterial Resistance Rating, Day 7: 0
  Bacterial Resistance Rating, Initial: 4
[2]; [10]
  Bacterial Resistance Rating, Day 1: 1 (trace of contamination (1 to 9 colonies))
  Bacterial Resistance Rating, Day 2: 0
  Bacterial Resistance Rating, Day 5: 0
  Bacterial Resistance Rating, Initial: 4
[1]
  ASTM RATING Mean: 8.7

## [Cu+2].[O-]n1ccccc1=S.[O-]n1ccccc1=S [COPPER OMADINE, reference compound]
[1]
  ASTM Rating: 9.2 ± 0.4

## CSCCC(O)C(=O)[O-].CSCCC(O)C(=O)[O-].[Mn+2] (stereo not drawn) [HMTBA-Mn]
[1]
  ASTM RATING Mean: 7.8

## C1N2CN3CN1CN(C2)C3 [HTA, reference compound]
[2]; [7]
  Bacterial Resistance Rating, Day 1: 4
  Bacterial Resistance Rating, Day 2: 4
  Bacterial Resistance Rating, Day 5: 4
  Bacterial Resistance Rating, Day 7: 4
  Bacterial Resistance Rating, Initial: 4

## c1cc[n+]2c(c1)[S][Zn-2]1([O]2)[O][n+]2ccccc2[S]1 [ZINC-OMADINE, reference compound]
[1]
  ASTM Rating: 8.3 ± 0.8
